One assay deals with T1, human 12-lipoxygenase (Homo sapiens, UniProt P18054).
T1 sequence (P18054 1-663): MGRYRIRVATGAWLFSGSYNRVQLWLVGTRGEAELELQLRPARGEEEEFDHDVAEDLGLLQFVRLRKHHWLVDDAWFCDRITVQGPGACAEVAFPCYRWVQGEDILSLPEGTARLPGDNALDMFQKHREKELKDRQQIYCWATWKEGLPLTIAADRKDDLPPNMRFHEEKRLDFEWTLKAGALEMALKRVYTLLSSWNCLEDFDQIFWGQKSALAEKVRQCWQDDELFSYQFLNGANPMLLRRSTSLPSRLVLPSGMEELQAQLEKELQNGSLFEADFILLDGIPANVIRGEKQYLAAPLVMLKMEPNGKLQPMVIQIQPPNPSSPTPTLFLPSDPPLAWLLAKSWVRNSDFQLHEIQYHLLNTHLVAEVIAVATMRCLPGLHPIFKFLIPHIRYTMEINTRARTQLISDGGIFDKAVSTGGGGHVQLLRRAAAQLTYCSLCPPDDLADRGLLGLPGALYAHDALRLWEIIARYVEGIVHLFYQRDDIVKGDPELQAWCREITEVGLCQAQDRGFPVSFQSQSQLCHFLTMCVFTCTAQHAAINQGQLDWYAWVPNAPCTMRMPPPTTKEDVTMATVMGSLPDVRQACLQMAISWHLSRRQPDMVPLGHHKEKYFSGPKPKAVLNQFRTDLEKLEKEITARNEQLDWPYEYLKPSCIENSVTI
The assay is described as follows: human 12-lipoxygenase inhibition (12hLO) assay, absorbance at 234 nm. The format is biochemical.

The test system of assay [1] is human platelets. The assay is described as follows: platelet aggregation in response to agonists, light transmission aggregometry. The format is cell-based. Conditions: agonists thrombin, arachidonic acid, PAR1-AP, PAR4-AP, ADP, collagen; 10 min pretreatment; FIG. 2. On the procedure:
(§1) Human platelets were obtained from healthy volunteers from within the Thomas Jefferson University community and the Philadelphia area. These studies were approved by the Thomas Jefferson University Institutional Review Board. Informed consent was obtained from all donors before blood draw. Blood was centrifuged at 200 g for 15 min at room temperature. Platelet-rich plasma was transferred into a conical tube containing a 10% acid citrate dextrose solution (39 mM citric acid, 75 mM sodium citrate, and 135 mM glucose, pH 7.4) and centrifuged at 2000 g for 15 min at room temperature. Platelets were resuspended in Tyrode's buffer (12 mM NaHCO3, 127 mM NaCl, 5 mM KCl, 0.5 mM NaH2PO4, 1 mM MgCl2, 5 mM glucose, and 10 mM HEPES), and the final platelet concentration was adjusted as indicated after counting using a Coulter counter (Beckman Coulter, Fullerton, Calif.). Reported results are the data obtained using platelets from at least three different subjects.
Washed platelets were obtained as described in Example 10. […] Platelets were pretreated with compound 1 for 10 min and aggregation in response to stimulation by the agonists thrombin, PAR1-AP, PAR4-AP, ADP and collagen at various agonist concentrations was measured via the light transmission aggregometry method using a lumi-aggregometer model 700D (Chrono-log Corp., Havertown, Pa.) with stirring at 1100 rpm at 37° C. […]

Assay [2] deals with human platelets. Nature of the assay: dense granule secretion (ATP release) in washed platelets. It counts as cell-based. Conditions: induced by thrombin, PAR1-AP, PAR4-AP, ADP, arachidonic acid, collagen; FIG. 3. The method, then:
as §1
Washed platelets were obtained as described in Example 10. […] After addition of 5 μl of Chrono-lume reagent (Chrono-log Corp., Havertown, Pa.), ATP release was measured in response to stimulation by the agonists thrombin, PAR1-AP, PAR4-AP, ADP, arachidonic acid, and collagen using a Lumi-aggregometer Model 700D (Chrono-log Corp., Havertown, Pa.) at 37° C. with stirring at 1100 rpm. […]

Assay [3] has as its system P-selectin on the surface of human platelets. The assay is described as follows: α-granule secretion, P-selectin expression by flow cytometry. It counts as cell-based. Conditions: vs agonists alone (thrombin, PAR1-AP, PAR4-AP, ADP); FIG. 4. The method, then: as §1
Washed platelets were obtained as described in Example 10. Flow cytometry was used to measure the secretion of α-granules. Specifically, P-selectin expression was used to detect α-granule secretion. […] The fluorescence intensity of 10,000 platelets was immediately measured using a C6 Accuri flow cytometer. […]

Assay [4] has as its system integrin αIIbβ3 in human platelets. Nature of the assay: activation of integrin αIIbβ3, PAC1 binding by flow cytometry. The format is cell-based. Conditions: vs agonists alone (thrombin, PAR1-AP, PAR4-AP, ADP); FIG. 5. The method, then: as §1
Washed platelets were obtained as described in Example 10. Flow cytometry was used to measure the activation of integrin αIIbβ3. Specifically, PAC1 (an antibody which only binds to αIIbβ3 when the protein is in its active conformation) binding was used to selectively detect the conformational activation of αIIbβ3. […] The fluorescence intensity of 10,000 platelets was immediately measured using a C6 Accuri flow cytometer. […]
(A flow cytometer gives signals particle by particle.)

In the next assay the test system is Human islets. The assay is described as follows: gene expression in cytokine-stimulated human islets, Taqman real time PCR. Conditions: TNF-α. It counts as cell-based. The method, then:
Human islets were incubated for 22 hours following stimulation with the inflammatory cytokines IFN-γ, TNF-α, and IL-1-β alone or in the presence of compound 1 or compound 9. Control islets were incubated for 22 hours in the absence of inflammatory cytokines or compounds. Following the incubation, gene expression for 12-LO, 15-LO, 5-LO, IL-12p40, and IFN-γ were determined using Taqman real time PCR.
A general note: Real-time PCR tracks product formation cycle by cycle.

[5] abbreviates: relative to control islets, IFN-γ, IL-1-β stimulation, 22 hours.

Each structure is given as a SMILES string.

Broadly, the IC50 is the midpoint of a concentration-inhibition curve.

In the case of `CCC(=O)NC(c1cccs1)c1cc([N+](=O)[O-])c2cccnc2c1O` (stereo not shown) [Compound 1, N-((8-hydroxy-5-nitroquinolin-7-yl)(thiophen-2-yl)methyl)propionamide], at human 12-lipoxygenase, the “selectivity for inhibition of human 12-lipoxygenase as compared with human 5-lipoxygenase, 15-lipoxygenase-1 and 15-lipoxygenase-2” value is “exhibited selectivity”. Besides, the half-inhibitory concentration (IC50) on human 12-lipoxygenase (12hLO Inhibition, Table 1, read-out: IC50 (μM) [± SD μM]) turned out to be 0.8 µM. Also, in the assay with human platelets [1], the “dose response curves for platelet aggregation” value is “substantially unaffected”. The “ATP secretion (dense granule secretion)” value in the assay with human platelets [2] is “substantially complete blockage of ATP secretion”. Also, the “expression of P-selectin on the surface of the platelets” value in assay [3] was “decreased expression of P-selectin”. For the same compound, in assay [4], the “binding of PAC1 on the surface of the platelets” value is on record as “decreased binding of PAC1”. In addition, in the assay on Human islets (induced by IFN-γ, IL-1-β), the “reduction in IFN-γ expression” value was 4 fold and the “reduction in IL-12p40 mRNA expression” value is 40 fold. Also, in the assay with Human islets (setting [5]), the “Change in Gene Expression 5-LO” value came out at 1, the “Change in Gene Expression 12-LO” value is reported as 13, the “Change in Gene Expression 15-LO” value came to 1 and the “Change in Gene Expression IFN-γ” value is recorded as 25. Also, the “Change in Gene Expression IL-12p40” value in the assay with Human islets (setting [5]) is listed as 3.

The values are drawn from patent US20130096159A1, “INHIBITORS OF HUMAN 12-LIPOXYGENASE” (The United States of America, as represented the Secretary …, priority 2010, published 2013).
